Data published in patent EP1366743A1, “Use of a derivative of 7-oxydated DHEA for treating dry skin” (L'OREAL, priority 2002, dated 2003).

Tested on: sébocytes humains immortalisés en culture, issus de la lignée SZ95
Assay: Lipogenesis: total lipids produced by cultured immortalised human sebocytes (Nile Red fluorescence)
Format: cell-based
Conditions: for activation at 10 µM / activation at 1 µM: 48 h, total lipids, variation versus control, 2 days of treatment, confluent SZ95 sebocytes; for activation at 10 µM: 10^-5 M in 0,1% DMSO, read-out: % de variation à 10^-5 M; for activation at 1 µM: 10^-6 M in 0,1% DMSO, read-out: % de variation à 10^-6 M
From the text: La 7α-OH DHEA et la 3-O-acétyl 7-benzoyloxy DHEA ont été testées sur un modèle de sébocytes humains immortalisés en culture, issus de la lignée SZ95 décrite dans Zouboulis, C.C., Seltmann, H., Neitzel, H. & Orfanos, C.E., Establishment and Characterization of an Immortalized Human Sebaceous Gland Cell Line, J. Invest. Dermatol., 113, 1011-1020 (1999).
Le test a consisté à mesurer la quantité de lipides produite par les sébocytes de la lignée (à confluence), en présence ou non d'agents actifs dilués dans le DMSO à 10^-5 M et 10^-6 M, de telle sorte que la quantité finale de DMSO dans le milieu de culture soit de 0,1%. Après 2 jours de traitement, les cellules adhérentes sont traitées par du Rouge de Nile (1µg/ml). Le contenu en lipides est ensuite quantifié par mesure de la fluorescence du colorant (deux couples d'excitation/émission : 485-540nm pour les lipides neutres et 540-620 nm pour les lipides non neutres). Les résultats sont donnés pour les lipides totaux (combinaison des deux mesures).
L'expérience est réalisée en sixplicate (produits dosés) ou dodeplicate (témoin) en plaque de 96 puits.
Le Tableau ci-dessous rassemble les résultats obtenus, en pourcentage de variation par rapport au témoin, ainsi que les coefficients p fournis par le test de Student et qui reflètent la significativité des mesures.

Compound | activation at 10 µM | activation at 1 µM | lipogénèse (result in words, 10^-6 M)
CC(=O)O[C@H]1CC[C@@]2(C)C(=CC(OC(=O)c3ccccc3)[C@@H]3[C@@H]2CC[C@]2(C)C(=O)CC[C@@H]32)C1 (some centres unmarked) [3-O-acétyl 7-benzoyloxy DHEA] | 15% | 15% | efficace
C[C@]12CC[C@H](O)CC1=C[C@@H](O)[C@@H]1[C@@H]2CC[C@]2(C)C(=O)CC[C@@H]12 [7α-OH DHEA] | 15% | 6% | 
